According to ChEMBL document CHEMBL1201862, “PubChem BioAssay data set” (2004):
Active and inactive are the calls of the source.

Tests used:
[1] = HRAS-V12 fibroblast viability reduction – cell-based, Alamar Blue, dry powder, Ras selective lethality project, primary screen (AID 493045); format: functional; conditions: BJeLR
[2] = BJeH cell viability loss – BJeH cells, dry powder, counter-screen for Ras selective lethality project, dose response (AID 493054); format: functional, cell-based
[3] = DRD BJ cell killing, Ras synthetic lethality – DRD BJ fibroblasts, HRASV12, dry powder, dose response (AID 493049); format: functional, cell-based
[4] = BJeHLT cell viability loss – BJeHLT cells, dry powder, counter-screen for Ras selective lethality project, dose response (AID 493052); format: functional, cell-based; conditions: Homo sapiens
[5] = biological target: E3 ubiquitin-protein ligase Mdm2 (Homo sapiens, UniProt Q00987); assay: MDM2-luc reporter signal enhancers, multi-concentration potency testing, MDM2 ubiquitin-protein ligase inhibitor program, whole-cell format, luminescence detection, 384-well microplate (AID 1394); format: functional;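 note: MDM2 E3 inhibitors raise luminescence so EC50 is for signal enhancement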
[6] = biological target: T1, Kappa-type opioid receptor (Homo sapiens, UniProt P41145); format: functional
[7] = biological target: T2, Beta-galactosidase (Escherichia coli, UniProt Q8VNN2); assay: PubChem AID 485352; format: functional
[8] = Luminescence-based dose response cell-based high throughput screening assay for cytotoxic compounds using the IEC-6 intestinal epithelial cell line. [Related pubchem assays: 1858 (Summary AID.), 1825 (Counterscreen.), 1907 (Confirmation screen.)]; format: functional
[9] = biological target: T2, Beta-galactosidase; format: functional
[10] = biological target: T1, Kappa-type opioid receptor; format: functional; remark: listed apart in the source
[11] = HEK-293T viability loss after treatment – luminescence, T-cell screen hits, cytotoxicity control for TCR NF-kB inhibitor project, dose response (AID 489026); format: functional, cell-based;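 note: cells exposed to compound about 14 hours before the viability readout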
[12] = biological target: T3, Type-1 angiotensin II receptor (Homo sapiens, UniProt P30556); assay: antagonism of angiotensin II type 1 receptor – cell-based, uHTS hits, selectivity assay for APJ receptor antagonist project, dose response (AID 463214); format: functional;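 note: antagonist potency against angiotensin II stimulated AT1 response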
T3 sequence (P30556 whole entry): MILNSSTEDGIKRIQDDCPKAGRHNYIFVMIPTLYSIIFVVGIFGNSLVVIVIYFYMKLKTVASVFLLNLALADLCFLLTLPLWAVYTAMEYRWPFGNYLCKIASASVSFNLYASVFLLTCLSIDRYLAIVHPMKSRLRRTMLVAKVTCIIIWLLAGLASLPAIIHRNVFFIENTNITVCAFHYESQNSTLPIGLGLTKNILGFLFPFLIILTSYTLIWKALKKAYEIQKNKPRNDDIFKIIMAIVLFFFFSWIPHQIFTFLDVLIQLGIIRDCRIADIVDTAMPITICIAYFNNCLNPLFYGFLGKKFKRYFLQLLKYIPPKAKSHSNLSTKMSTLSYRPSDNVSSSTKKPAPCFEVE

[13] = biological target: Paired box protein Pax-8 (Homo sapiens, UniProt Q06710); assay: PAX8 transcriptional activity inhibition in RMG-I – RMG-I cells, luciferase, cherry-pick, dose response (AID 687027); format: functional, cell-based;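 note: luciferase reporter driven by Pax8 target thyroperoxidase promoter measured by SteadyGlo luminescence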
[14] = biological target: Protein Tat (Human immunodeficiency virus type 1 group M subtype B (isolate HXB2)(HIV-1), UniProt P04608); format: functional;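 note: tat binding to TAR RNA read out by fluorescence polarization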
[15] = biological target: T2, Beta-galactosidase; assay: detection-enzyme interference by beta-gal modulators – biochemical, E. coli enzyme, set 3, artefact control for CCR6 antagonist project, dose response (AID 504712); format: functional
[16] = viability loss in THP-1 monocytes – THP-1 cells, cytotoxicity control for Vif-APOBEC3G degradation inhibitor project, dose response (AID 1117359); format: functional; conditions: THP-1
[17] = blockers of FN fibrillogenesis by fibroblasts – AH1F cells, Alexa488-FN fluorescence, cherry-picks, dose response (AID 1035475); format: functional, cell-based
[18] = viability loss in A549 lung cancer cells – cell-based, cherry-picks, […], cytotoxicity control, dose response (AID 1053119); format: functional
[19] = viability loss in HEK293 kidney cells – cell-based, cherry-picks, set 5, cytotoxicity control, dose response (AID 1053117); format: functional
[20] = biological target: C-C chemokine receptor type 6 (Homo sapiens, UniProt P51684); assay: antagonism of CCR6 beta-arrestin recruitment – cell-based, luminescent beta-arrestin readout, dose response (AID 504728); format: functional
[21] = viability loss in HepG2 hepatoma cells – cell-based, cherry-picks, set 5, cytotoxicity control, dose response (AID 1053118); format: functional
[22] = general cell-killing toxicity readout – plate reader, dry powder samples, cytotoxicity control for PAX8 inhibitor project, dose response (AID 743021); format: functional, cell-based
[23] = biological target: T4, Rac GTPase-activating protein 1 (Homo sapiens, UniProt Q9H0H5); assay: blockers of MgcRacGAP-driven Rac1 GTP hydrolysis – biochemical, ADP Hunter fluorescence, primary and confirmatory, confirmation (AID 624330); format: functional
T4 sequence (Q9H0H5 whole entry): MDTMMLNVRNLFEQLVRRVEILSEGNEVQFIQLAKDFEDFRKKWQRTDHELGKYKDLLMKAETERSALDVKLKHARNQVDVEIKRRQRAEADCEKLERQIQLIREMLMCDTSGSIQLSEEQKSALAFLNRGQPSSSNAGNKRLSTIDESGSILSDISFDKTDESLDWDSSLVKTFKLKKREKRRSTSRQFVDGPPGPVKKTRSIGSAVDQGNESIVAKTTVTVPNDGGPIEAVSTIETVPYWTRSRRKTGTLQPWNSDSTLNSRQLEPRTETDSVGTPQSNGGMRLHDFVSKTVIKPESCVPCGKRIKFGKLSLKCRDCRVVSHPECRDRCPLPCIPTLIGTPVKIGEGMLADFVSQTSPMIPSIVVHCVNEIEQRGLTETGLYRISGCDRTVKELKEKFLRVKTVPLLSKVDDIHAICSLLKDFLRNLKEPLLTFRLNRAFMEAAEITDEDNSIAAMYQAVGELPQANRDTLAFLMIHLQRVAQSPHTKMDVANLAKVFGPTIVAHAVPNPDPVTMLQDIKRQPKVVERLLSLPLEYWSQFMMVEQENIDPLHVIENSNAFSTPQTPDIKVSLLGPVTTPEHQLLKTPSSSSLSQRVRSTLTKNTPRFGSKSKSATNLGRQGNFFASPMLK

[24] = test system: Vero; assay: viability of Vero cells under compound – cytotoxicity control for flavivirus capping enzyme inhibitors (AID 588742); format: functional; conditions: Chlorocebus sabaeus
[25] = biological target: Heat shock protein HSP 90-alpha (Homo sapiens, UniProt P07900); format: functional, organism-based
[26] = biological target: Genome polyprotein (dengue virus type 2, UniProt P29990); assay: flavivirus cap methylation enzyme inhibition – biochemical, confirmation dose response, primary screen (AID 588689); format: functional
[27] = viability loss in HeLa cells – cytotoxicity control for MgcRacGAP inhibitor project, dose response (AID 624300); format: functional

T2 sequence (Q8VNN2 whole entry): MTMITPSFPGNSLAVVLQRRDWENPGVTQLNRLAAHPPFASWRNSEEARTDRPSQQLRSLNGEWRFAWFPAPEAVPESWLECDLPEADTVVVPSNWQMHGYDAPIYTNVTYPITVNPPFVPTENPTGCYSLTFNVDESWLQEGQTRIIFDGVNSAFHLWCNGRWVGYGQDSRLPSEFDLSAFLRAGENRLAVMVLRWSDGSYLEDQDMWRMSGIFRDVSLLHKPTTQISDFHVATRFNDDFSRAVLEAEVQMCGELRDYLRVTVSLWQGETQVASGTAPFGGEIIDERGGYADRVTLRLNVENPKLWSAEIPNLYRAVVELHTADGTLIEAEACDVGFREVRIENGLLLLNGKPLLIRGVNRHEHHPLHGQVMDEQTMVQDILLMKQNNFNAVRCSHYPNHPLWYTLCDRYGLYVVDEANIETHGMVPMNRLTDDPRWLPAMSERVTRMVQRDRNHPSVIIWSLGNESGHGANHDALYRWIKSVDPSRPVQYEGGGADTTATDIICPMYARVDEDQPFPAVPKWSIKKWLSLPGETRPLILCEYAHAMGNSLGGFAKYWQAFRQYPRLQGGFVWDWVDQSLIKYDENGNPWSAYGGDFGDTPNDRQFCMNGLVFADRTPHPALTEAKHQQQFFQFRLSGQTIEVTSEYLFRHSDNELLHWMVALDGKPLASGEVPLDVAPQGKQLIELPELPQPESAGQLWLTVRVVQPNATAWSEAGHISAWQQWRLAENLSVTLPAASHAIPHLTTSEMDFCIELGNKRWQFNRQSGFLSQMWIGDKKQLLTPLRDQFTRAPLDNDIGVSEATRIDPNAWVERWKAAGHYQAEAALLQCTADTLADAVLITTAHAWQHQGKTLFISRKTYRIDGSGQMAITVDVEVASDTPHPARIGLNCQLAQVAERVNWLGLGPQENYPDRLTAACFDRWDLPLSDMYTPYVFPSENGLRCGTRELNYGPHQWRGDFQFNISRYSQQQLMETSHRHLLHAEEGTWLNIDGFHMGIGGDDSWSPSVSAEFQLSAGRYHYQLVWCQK
T1 sequence (P41145 whole entry): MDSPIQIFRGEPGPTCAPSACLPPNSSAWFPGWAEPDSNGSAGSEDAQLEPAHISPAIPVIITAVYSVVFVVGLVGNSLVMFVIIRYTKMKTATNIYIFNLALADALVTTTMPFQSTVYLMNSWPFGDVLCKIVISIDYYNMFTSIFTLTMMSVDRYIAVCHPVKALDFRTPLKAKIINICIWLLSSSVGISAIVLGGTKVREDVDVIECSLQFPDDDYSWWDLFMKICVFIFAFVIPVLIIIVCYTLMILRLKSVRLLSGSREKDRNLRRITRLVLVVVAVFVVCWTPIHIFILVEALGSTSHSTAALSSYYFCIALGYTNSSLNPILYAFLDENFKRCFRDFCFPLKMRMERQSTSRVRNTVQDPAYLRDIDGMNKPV
Sequence of C-C chemokine receptor type 6 (P51684 whole entry): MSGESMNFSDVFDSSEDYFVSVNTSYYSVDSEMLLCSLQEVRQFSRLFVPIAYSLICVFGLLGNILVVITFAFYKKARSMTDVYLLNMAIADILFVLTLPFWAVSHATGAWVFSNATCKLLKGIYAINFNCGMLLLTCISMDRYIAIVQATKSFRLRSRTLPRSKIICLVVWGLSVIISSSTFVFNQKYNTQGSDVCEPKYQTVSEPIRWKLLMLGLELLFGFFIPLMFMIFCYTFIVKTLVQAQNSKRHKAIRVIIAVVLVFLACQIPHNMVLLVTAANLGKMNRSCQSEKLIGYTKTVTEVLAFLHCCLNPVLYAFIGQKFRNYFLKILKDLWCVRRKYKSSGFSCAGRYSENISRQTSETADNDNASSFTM
Sequence of Protein Tat (P04608 whole entry): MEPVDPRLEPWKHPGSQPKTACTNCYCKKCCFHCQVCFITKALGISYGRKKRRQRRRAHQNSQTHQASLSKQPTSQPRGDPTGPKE
Sequence of E3 ubiquitin-protein ligase Mdm2 (Q00987 whole entry): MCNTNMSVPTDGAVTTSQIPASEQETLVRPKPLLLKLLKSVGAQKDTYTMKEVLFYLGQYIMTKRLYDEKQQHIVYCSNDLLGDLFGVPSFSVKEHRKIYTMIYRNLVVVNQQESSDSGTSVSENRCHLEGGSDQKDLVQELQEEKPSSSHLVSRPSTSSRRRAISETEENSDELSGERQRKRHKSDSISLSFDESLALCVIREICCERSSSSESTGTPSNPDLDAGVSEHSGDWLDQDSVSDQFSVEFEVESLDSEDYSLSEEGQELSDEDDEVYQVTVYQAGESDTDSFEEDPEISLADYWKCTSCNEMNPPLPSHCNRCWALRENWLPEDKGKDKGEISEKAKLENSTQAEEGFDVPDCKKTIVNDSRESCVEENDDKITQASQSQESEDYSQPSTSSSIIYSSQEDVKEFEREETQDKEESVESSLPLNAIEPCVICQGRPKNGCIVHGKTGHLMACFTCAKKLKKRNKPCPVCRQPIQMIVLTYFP
Sequence of Genome polyprotein (P29990 2492-3391 limits assumed): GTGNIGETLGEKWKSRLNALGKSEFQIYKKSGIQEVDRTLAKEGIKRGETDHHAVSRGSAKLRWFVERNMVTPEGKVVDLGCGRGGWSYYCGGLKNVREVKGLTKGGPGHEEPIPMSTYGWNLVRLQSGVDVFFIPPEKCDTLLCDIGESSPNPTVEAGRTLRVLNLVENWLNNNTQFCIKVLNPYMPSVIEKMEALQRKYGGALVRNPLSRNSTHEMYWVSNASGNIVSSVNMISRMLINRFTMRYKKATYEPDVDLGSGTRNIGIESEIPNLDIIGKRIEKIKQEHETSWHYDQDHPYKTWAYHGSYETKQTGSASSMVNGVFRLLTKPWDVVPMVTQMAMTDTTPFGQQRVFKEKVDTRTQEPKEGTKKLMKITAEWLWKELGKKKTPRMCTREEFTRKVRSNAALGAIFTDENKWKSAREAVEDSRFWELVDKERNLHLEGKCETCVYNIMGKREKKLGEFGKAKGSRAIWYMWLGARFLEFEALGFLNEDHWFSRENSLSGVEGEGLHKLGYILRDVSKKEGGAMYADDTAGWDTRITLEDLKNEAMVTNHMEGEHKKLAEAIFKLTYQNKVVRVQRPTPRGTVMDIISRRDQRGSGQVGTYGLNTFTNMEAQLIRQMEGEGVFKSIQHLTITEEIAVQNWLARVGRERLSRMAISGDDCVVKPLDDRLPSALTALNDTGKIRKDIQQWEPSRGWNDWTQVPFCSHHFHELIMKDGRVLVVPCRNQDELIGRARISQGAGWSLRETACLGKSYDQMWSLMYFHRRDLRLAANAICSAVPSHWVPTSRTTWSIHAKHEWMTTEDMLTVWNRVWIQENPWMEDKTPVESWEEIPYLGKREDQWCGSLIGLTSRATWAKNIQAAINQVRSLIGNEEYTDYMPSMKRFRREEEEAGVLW
Sequence of Paired box protein Pax-8 (Q06710 whole entry): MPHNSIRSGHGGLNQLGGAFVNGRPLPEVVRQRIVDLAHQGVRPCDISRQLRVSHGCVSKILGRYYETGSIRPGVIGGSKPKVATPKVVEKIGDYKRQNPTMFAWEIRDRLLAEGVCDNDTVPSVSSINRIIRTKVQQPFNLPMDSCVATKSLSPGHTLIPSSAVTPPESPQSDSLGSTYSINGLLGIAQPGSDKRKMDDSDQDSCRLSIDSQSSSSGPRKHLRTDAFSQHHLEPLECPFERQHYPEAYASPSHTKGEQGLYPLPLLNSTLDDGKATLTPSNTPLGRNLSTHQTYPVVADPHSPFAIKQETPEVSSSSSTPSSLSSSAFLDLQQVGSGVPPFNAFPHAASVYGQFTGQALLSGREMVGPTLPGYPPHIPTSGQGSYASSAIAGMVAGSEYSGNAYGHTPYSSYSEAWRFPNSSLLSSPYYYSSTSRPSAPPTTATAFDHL

COc1ccc(N(C(=O)CCl)C(C(=O)NCCc2ccccc2)c2nc(C)cs2)cc1Cl (configuration not stated)
active: AC50 [1] 8.26 µM | AC50 [2] 32.7 µM | AC50 [3] 8.54 µM | AC50 [4] 19.8 µM

COc1ccc(C[S+]([O-])/C(Cl)=C(/Cl)C(=O)Nc2ccc(OC)nc2)cc1 (configuration not stated)
active: EC50 [5] 0.56 µM | IC50 [8] 1.65 µM | IC50 [10] 5.22 µM | IC50 [12] 2.92 µM
inactive: EC50 [7] > 40 µM | EC50 [9] > 31.5 µM | IC50 [11] 31.5 µM
8.26 µM: IC50 [6]

CC1OC(CC(=O)O)CC2=C1C(=O)c1c(O)cccc1C2=O (configuration not stated) [NANAOMYCIN]
inactive: IC50 [15] > 66.6 µM | IC50 [20] > 66.6 µM
active: AC50 [13] 0.469 µM | IC50 [14] > 100 µM | CC50 [16] 0.69 µM | AC50 [17] 0.779 µM | AC50 [18] 0.485 µM | AC50 [19] 2.5 µM | AC50 [21] 0.37 µM | AC50 [22] 3.45 µM | IC50 [23] 76.4 µM | CC50 [24] 0.72 µM | AC50 [25] 0.262 µM | IC50 [26] 5.04 µM | CC50 [27] 5.86 µM
